What all share (test): NCI anticancer screen, dose series, 48 h
Assay [1] relates to SK-MEL-2.
Assay [2] concerns EKVX.
For assay [3], the system named is HOP-62.
Assay [4] relates to M14.
Assay [5] relates to SF-539.
For assay [6], the system named is RXF 393.
Assay [7] deals with HCT-116.
The subject of assay [8] is PC-3.
In assay [9] the test system is T47D.
In assay [10] the test system is MDA-MB-435.
Assay [11] concerns NCI-H23.
Assay [12] concerns HT-29.
Assay [13] concerns MDA-N.
Assay [14] has as its system 786-0.
The subject of assay [15] is HOP-92.
The test system of assay [16] is SNB-75.
Assay [17] relates to MDA-MB-231.
In assay [18] the test system is NCI-H460.
The test system of assay [19] is KM12.
Assay [20] concerns SW-620.

The results in this text go back to ChEMBL document CHEMBL1201862, “PubChem BioAssay data set” (2004).

SMILES strings stand for the structures.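 Five concentrations, 48 hours, 96-well plates. Abbreviation: GI50, concentration required for 50% inhibition of growth.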 The source made the active and inactive calls. Rule as the data show it: active = GI50 up to about 1.1 µM and inactive = higher.

As for `N#C[C@H](C(=O)c1ccccc1F)c1nc2ccccc2[nH]1`, the GI50 in [1], in assay [2], in assay [3], in assay [4], in assay [5] and in [6] was > 100 µM (inactive) throughout. Besides, the GI50 was > 100 µM (inactive) in assay [7]; > 100 µM (inactive) in assay [8]; > 100 µM (inactive) in assay [9]; > 100 µM (inactive) in assay [10]; > 100 µM (inactive) in [11]; 69.2 µM (inactive) in [12]. The GI50 in assay [13] was > 100 µM (inactive); in assay [14], > 100 µM (inactive); in assay [15], > 100 µM (inactive); in assay [16], 82.6 µM (inactive); in assay [17] it was > 100 µM (inactive); in assay [18] it was > 100 µM (inactive). For the same molecule, the values for the GI50 in assay [19] and in assay [20] were 96.2 µM (inactive) and > 100 µM (inactive), respectively.

On to `O=C1C2=C(C(=O)c3c(O)ccc(O)c31)[C@@H](O)[C@@H](O)[C@@H](O)C2`, for which the GI50 is 1.73 µM (inactive) in assay [1]; 2.77 µM (inactive) in assay [2]; 3.97 µM (inactive) in [3]; 1.86 µM (inactive) in [4]; 3.71 µM (inactive) in assay [5]; 1.85 µM (inactive) in assay [6]. The GI50 is 0.47 µM (active) in assay [7]; 2.66 µM (inactive) in [8]; 1.1 µM (active) in [9]; 1.57 µM (inactive) in assay [10]; 1.96 µM (inactive) in assay [11]; 1.32 µM (inactive) in assay [12]. Further, the GI50 in assay [13] is 1.49 µM (inactive); in assay [14], 2.02 µM (inactive); in assay [15], 1.34 µM (inactive); in [16] it was 3.43 µM (inactive); in [17], 2.14 µM (inactive); in assay [18], 4.71 µM (inactive). The GI50 in assay [19] is 4.46 µM (inactive); in assay [20] it was 0.681 µM (active).

As for `O=c1oc2cc(O)ccc2c(O)c1C(c1ccccc1F)c1c(O)c2ccc(O)cc2oc1=O`, the GI50 is 45 µM (inactive) in assay [1]; > 100 µM (inactive) in assay [2]; > 100 µM (inactive) in assay [3]; > 100 µM (inactive) in assay [4]; 31.7 µM (inactive) in assay [5]; 39.7 µM (inactive) in assay [6]. Further, the GI50 in assay [7] is 48.4 µM (inactive); in assay [8] it was > 100 µM (inactive); in [9], > 100 µM (inactive); in [10], 43.8 µM (inactive); in assay [11], > 100 µM (inactive); in assay [12] it was > 100 µM (inactive). Further, the GI50 was 61.2 µM (inactive) in [13]; > 100 µM (inactive) in assay [14]; 65.2 µM (inactive) in [15]; > 100 µM (inactive) in assay [16]; 95.7 µM (inactive) in assay [17]; > 100 µM (inactive) in assay [18]. For the same molecule, the results for the GI50 in assay [19] and in assay [20] were 78.3 µM (inactive) and 38.4 µM (inactive), respectively.

Take `C(=N\OCCc1ccccc1)/c1cccnc1`: the GI50 in assay [1], in assay [2], in assay [3], in [4], in assay [5] and in [6] was > 100 µM (inactive) in each case. Also, the GI50 in assay [7], in assay [8], in assay [9], in assay [10], in assay [11] and in assay [12] was > 100 µM (inactive) in each case. The GI50 was > 100 µM (inactive) in assay [13]; > 100 µM (inactive) in assay [14]; > 100 µM (inactive) in assay [15]; 71.6 µM (inactive) in [16]; > 100 µM (inactive) in [17]; > 100 µM (inactive) in [18]. Also, the GI50 in [19] and in [20] was > 100 µM (inactive) throughout.

As to `COc1cc(OC)c(OC)cc1/C=C/c1nc2ccccc2s1`, the GI50 in assay [1] is > 100 µM (inactive); in assay [2], 69.7 µM (inactive); in assay [3], 29.1 µM (inactive); in [4], 17.6 µM (inactive); in [5] it was > 100 µM (inactive); in assay [6] it was 23.3 µM (inactive). Besides, the GI50 was 25.2 µM (inactive) in [7]; 5.78 µM (inactive) in assay [8]; 8.45 µM (inactive) in assay [9]; 3.1 µM (inactive) in [10]; 86.5 µM (inactive) in [11]; 38.7 µM (inactive) in assay [12]. For the same molecule, the GI50 in [13] is 17.5 µM (inactive); in assay [14] it was > 100 µM (inactive); in [15] it was 6.35 µM (inactive); in assay [16], 91.4 µM (inactive); in [17], > 100 µM (inactive); in assay [18], > 100 µM (inactive). Moreover, the GI50 in assay [19] and in assay [20] was > 100 µM (inactive) each time.
